Holding throughout (format): cell-based, human
The subject of one assay is DLC1 promoter. The assay is described as follows: DLC1 promoter luciferase reporter. The following applies: Ishikawa cells, 24 h. The method, then:
FIGS. 21A–21J—Estrogenic signals upregulate DLC1 expression via Pak1 pathway. FIG. 21A: DLC1 upregulation by E2 or Tam. MCF-7/Tam-sen, MCF-7/TAMR1 and Ishikawa cells were treated with E2 (10^−9M) or Tam (10^−9M) for 24 h, and cell lysates were assayed for DLC1 and Pak1 protein expression. FIG. 21B: Upregulation of DLC1 mRNA in MCF-7 cells treated with different doses of E2 for 24 h. FIG. 21C: Effect of different periods of E2 treatment and cycloheximide (CHX) and Actinomycin D (ACTD) treatment on the ability of E2 to upregulate DLC1 mRNA in MCF-7 cells. FIG. 21D: DLC1 mRNA and protein levels in MCF-7/DA-Pak1 cells by Northern and Western blotting. FIG. 21E: DLC1 mRNA and protein levels in MCF-7/DN-Pak1 cells by Northern and Western blotting. FIG. 21F: Downregulation of DLC1 protein expression in MCF-7 cells treated with Pak1-siRNA for 24 h. FIG. 21G: Modulation of DLC1 promoter (1245 bp) luc activity by the expression of wtPak1 or DN-Pak1. MCF-7 cells were transfected with DLC1-luc and transfected with either wtPak1 or Pak1 inhibitor 83-149 and luc activity was measured after 24 h. FIG. 21H: Upregulation of DLC1 promoter luc activity following pak1 induction in MCF-7/DA-Pak 1 cells. FIG. 21I: Downegulation of DLC1 promoter luc activity in MCF-7/DN-pak1 cells. […]
On the technique in general: In a reporter assay the amount or activity of a reporter protein is the signal.

The test system of a further assay is DLC1-ER interaction. The assay is described as follows: Coimmunoprecipitation of DLC1 with ER. The protocol: In vitro-translated ^35ER were incubated with GST-DLC1, and analyzed by SDS-PAGE and autoradiography. FIG. 13B: Identification of ER domains that interact with DLC1. GST-ER fusion proteins containing different deletion constructs were incubated with in vitro-translated 35S-DLC1 (aa 1-89), and binding was analyzed by GST pull-down assay. FIG. 13C: Mapping of the ER-binding region in DLC1. GST-fusions of various DLC1 deletion constructs were incubated with in vitro-translated ^35S-ER, and binding was analyzed by GST pull-down assay. […] Cell lysates from Ishikawa cells was immunoprecipitated (IP) with anti-ERá mAb and immunoblotted with anti-DLC1 or ER Abs. […] Cell lysates from MCF-7/TAM-sen or Ishikawa cells were treated with Tam (10^−9M) for 24 h, and IP with anti-ERá mAb and immunoblotted with anti-DLC1 or ER Abs. […] MCF-7/DLC1 cells were treated with or without Dox for 24 h and then treated with E2 (10^−9M) or Tam (10^−8M) for 24 h, and IP with anti-ERá mAb and immunoblotted with anti-DLC1 or ER Abs. FIG. 13G: Characterization of MCF-7 cells expressing T7-DLC1-Ser88A mutant under a tetracycline-inducible promoter. […] MCF-7/DLC1 and MCF-7/DLC1-Ser88A cells were treated with or without Dox for 24 h and cell lysates were IP with anti-ERá mAb and blotted with anti-DLC1, ERá and T7 Abs.
To this end, MCF-7 cells expressing a T7-DLC1 mutant in which Ser88 and amino acid 89 were deleted under a tet-inducible promoter (MCF-7/DLC1-1-87 mutant) were generated (FIG. 13G).

The next assay deals with Pak1. The assay is described as follows: Pak1 kinase activity in cell lysates. The following applies: Ishikawa cells. An excerpt: FIGS. 20A–20L—Pak1 activation confers tamoxifen-resistance. FIG. 20A: Pak1 activation promoted ER-transactivation function.

Regarding `CC/C(=C(\c1ccccc1)c1ccc(OCCN(C)C)cc1)c1ccccc1` [tamoxifen], the DLC1 promoter activity entry with DLC1 promoter was “stimulated”. Also, the DLC1-ER interaction entry with DLC1-ER interaction (Ishikawa cells, Tam 24 h) is given as “substantially enhanced”; in the assay with DLC1-ER interaction (MCF-7/DLC1 cells with doxycycline) it was “modestly, but reproducibly, increased”; in the assay with DLC1-ER interaction (MCF-7/TAM-Sen cells, Tam 24 h) it was “not”. Further, the Pak1 kinase activity entry with Pak1 is “upregulated”.
With “DLC1/PIN^del 88-89: DLC1/PIN mutant in which Ser88 and amino acid 89 were deleted”, the “interaction with ER” value with DLC1-ER interaction (MCF-7 cells, tet-inducible T7-tagged mutant) was “failed to detect any interaction”.
